Where “and” joins values, the source holds several entries; their conditions need not be identical. Identical values can stand only once.
Test system: 186277-243-T-J2-PDC complex spheroid viability
Test: Anticancer human tumor 186277-243-T-J2-PDC patient-derived colon adenocarcinoma cell line growth inhibition [POLQ]
Conditions: for viability, T/C: stronger effect = lower value
Procedure, shortened: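 Complex spheroid viability model combining PDC tumour cells with endothelial (HUVEC) and MSC stromal cells. Novobiocin, ART-558 or RP6685 were tested singly and in combination with standard and investigational anticancer drugs. Each was titrated in half-log steps from near clinical Cmax, or from 10 microM where Cmax was unknown.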

[1] = curve of first compound, second compound 0.0316 µM
[2] = curve of first compound, second compound 0.1 µM
[3] = curve of first compound, second compound 0.316 µM
[4] = curve of first compound, second compound 1 µM
[5] = curve of first compound, second compound 3.16 µM
[6] = curve of first compound, second compound 10 µM
[7] = second compound 0.0316 µM, first compound 0.0316 µM
[8] = second compound 0.0316 µM, first compound 0.1 µM
[9] = second compound 0.0316 µM, first compound 0.316 µM
[10] = second compound 0.0316 µM, first compound 1 µM
[11] = second compound 0.0316 µM, first compound 3.16 µM
[12] = second compound 0.0316 µM, first compound 10 µM
[13] = second compound 0.1 µM, first compound 0.0316 µM
[14] = second compound 0.1 µM, first compound 0.1 µM
[15] = second compound 0.1 µM, first compound 0.316 µM
[16] = second compound 0.1 µM, first compound 1 µM
[17] = second compound 0.1 µM, first compound 3.16 µM
[18] = second compound 0.1 µM, first compound 10 µM
[19] = second compound 0.316 µM, first compound 0.0316 µM
[20] = second compound 0.316 µM, first compound 0.1 µM
[21] = second compound 0.316 µM, first compound 0.316 µM
[22] = second compound 0.316 µM, first compound 1 µM
[23] = second compound 0.316 µM, first compound 3.16 µM
[24] = second compound 0.316 µM, first compound 10 µM
[25] = second compound 1 µM, first compound 0.0316 µM
[26] = second compound 1 µM, first compound 0.1 µM
[27] = second compound 1 µM, first compound 0.316 µM
[28] = second compound 1 µM, first compound 1 µM
[29] = second compound 1 µM, first compound 3.16 µM
[30] = second compound 1 µM, first compound 10 µM
[31] = second compound 3.16 µM, first compound 0.0316 µM
[32] = second compound 3.16 µM, first compound 0.1 µM
[33] = second compound 3.16 µM, first compound 0.316 µM
[34] = second compound 3.16 µM, first compound 1 µM
[35] = second compound 3.16 µM, first compound 3.16 µM
[36] = second compound 3.16 µM, first compound 10 µM
[37] = second compound 10 µM, first compound 0.0316 µM
[38] = second compound 10 µM, first compound 0.1 µM
[39] = second compound 10 µM, first compound 0.316 µM
[40] = second compound 10 µM, first compound 1 µM
[41] = second compound 10 µM, first compound 3.16 µM
[42] = second compound 10 µM, first compound 10 µM
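Also: spheroids exposed to compounds for seven days.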
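For viability, T/C in this document: 100% = DMSO vehicle control viability.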

`Nc1ccc(C#CCN(C(=O)Cc2ncc(C(F)(F)F)cc2C(F)(F)F)c2ccc(F)cc2)nn1` was tested, and the viability, T/C (compound 0.0316 µM) was 103% [middle of 13 runs], the viability, T/C (compound 0.1 µM) was 102% [middle of 13 runs] and the viability, T/C (compound 0.316 µM) was 98.7% [middle of 13 runs]. For the same compound, the viability, T/C (compound 1 µM) was 101% [middle of 13 runs], the viability, T/C (compound 3.16 µM) was 94.9% [middle of 13 runs] and the IC50 (compound alone, run of 11/06/2023) was > 10000 nM.
Work on `CC1COCCN1c1cc(-c2ccnn2C)c2ccnc(-c3ccn[nH]3)c2n1` (stereo unspecified) + Nc1ccc(C#CCN(C(=O)Cc2ncc(C(F)(F)F)cc2C(F)(F)F)c2ccc(F)cc2)nn1 yielded an IC50 [1] of 74 nM, an IC50 [2] of 75.2 nM and an IC50 [3] of 76.3 nM. It also gave an IC50 [4] of 76.4 nM, an IC50 [5] of 75.8 nM and an IC50 [6] of 71.9 nM. It also gave a viability, T/C [7] of 113%, a viability, T/C [8] of 27.5% and a viability, T/C [9] of 10.3%. The viability, T/C [10] was 7.67%, the viability, T/C [11] was 6.65% and the viability, T/C [12] was 7.86%. For the same compound, the viability, T/C [13] was 115%, the viability, T/C [14] was 28.8% and the viability, T/C [15] was 11%. It also gave a viability, T/C [16] of 7.38%, a viability, T/C [17] of 6.86% and a viability, T/C [18] of 9.94%. The viability, T/C [19] was 126%, the viability, T/C [20] was 26.8% and the viability, T/C [21] was 9.95%. The viability, T/C [22] was 7.12%, the viability, T/C [23] was 6.81% and the viability, T/C [24] was 9.08%. It also gave a viability, T/C [25] of 124%, a viability, T/C [26] of 27.5% and a viability, T/C [27] of 9.34%. The viability, T/C [28] was 7.54%, the viability, T/C [29] was 6.88% and the viability, T/C [30] was 9.31%. For the same compound, the viability, T/C [31] was 123%, the viability, T/C [32] was 26.7% and the viability, T/C [33] was 9.31%. For the same compound, the viability, T/C [34] was 6.61%, the viability, T/C [35] was 8.2% and the viability, T/C [36] was 7.84%. It also gave a viability, T/C [37] of 118%, a viability, T/C [38] of 22.5% and a viability, T/C [39] of 9.8%. It also gave a viability, T/C [40] of 7.22%, a viability, T/C [41] of 6.51% and a viability, T/C [42] of 7.63%.
For `COc1cc2cc(C(=O)CCC(=O)O)sc2cc1OC`, the viability, T/C (compound 0.0316 µM) was 92.9% and 94% and 94.8%, the viability, T/C (compound 0.1 µM) was 92.5% and 101% and 99.4% and the viability, T/C (compound 0.316 µM) was 100% and 88% and 107%. For the same compound, the viability, T/C (compound 1 µM) was 111% and 86% and 87.3%, the viability, T/C (compound 3.16 µM) was 94.3% and 96.3% and 101% and the viability, T/C (compound 10 µM) was 94.8% and 95.2% and 101%. For the same compound, the IC50 (curve of compound) was > 10000 nM.
`CCCS(=O)(=O)Nc1ccc(F)c(C(=O)c2c[nH]c3ncc(-c4ccc(Cl)cc4)cc23)c1F` + COC1C(OC(N)=O)C(O)C(Oc2ccc3c(O)c(NC(=O)c4ccc(O)c(CC=C(C)C)c4)c(=O)oc3c2C)OC1(C)C was tested, and the IC50 [1] was 8120 nM, the IC50 [2] was 7840 nM and the IC50 [3] was > 10000 nM. The IC50 [4] was 7810 nM, the IC50 [5] was 9150 nM and the IC50 [6] was > 10000 nM. The viability, T/C [7] was 95%, the viability, T/C [8] was 90% and the viability, T/C [9] was 86.5%. The viability, T/C [10] was 93.4%, the viability, T/C [11] was 88.5% and the viability, T/C [12] was 41.5%. It also gave a viability, T/C [13] of 98.4%, a viability, T/C [14] of 76.9% and a viability, T/C [15] of 96.2%. It also gave a viability, T/C [16] of 79.7%, a viability, T/C [17] of 87.7% and a viability, T/C [18] of 39.9%. For the same compound, the viability, T/C [19] was 91.4%, the viability, T/C [20] was 90.4% and the viability, T/C [21] was 89.7%. It also gave a viability, T/C [22] of 92.8%, a viability, T/C [23] of 101% and a viability, T/C [24] of 52%. The viability, T/C [25] was 91.2%, the viability, T/C [26] was 97.2% and the viability, T/C [27] was 86.6%. The viability, T/C [28] was 86.8%, the viability, T/C [29] was 97.6% and the viability, T/C [30] was 38.5%. For the same compound, the viability, T/C [31] was 92.2%, the viability, T/C [32] was 96.6% and the viability, T/C [33] was 93.5%. It also gave a viability, T/C [34] of 90.6%, a viability, T/C [35] of 88% and a viability, T/C [36] of 46.7%. The viability, T/C [37] was 118%, the viability, T/C [38] was 89.7% and the viability, T/C [39] was 93.6%. The viability, T/C [40] was 94%, the viability, T/C [41] was 92% and the viability, T/C [42] was 50.3%.
`CC[C@@]1(O)C(=O)OCc2c1cc1n(c2=O)Cc2cc3c(CN(C)C)c(O)ccc3nc2-1` was tested, and the viability, T/C (compound 0.000316 µM) was 96.6% and 87.7% and 89.5%, the viability, T/C (compound 0.001 µM) was 91.4% and 93.5% and 116% and the viability, T/C (compound 0.00316 µM) was 112% and 111% and 129%. The viability, T/C (compound 0.01 µM) was 119% and 125% and 112%, the viability, T/C (compound 0.0316 µM) was 71.8% and 125% and 61.7% and the viability, T/C (compound 0.1 µM) was 48.8% and 88.5% and 38.6%. For the same compound, the IC50 (curve of compound) was 94.1 nM and > 100 nM and 56.7 nM.
`CCc1cc2c(N3CCc4c(cc(Cn5ccnc5)cc4-c4cn(C)nc4C(F)(F)F)C3=O)cc(C)nc2c(OC)n1` was tested, and the viability, T/C (compound 0.0316 µM) was 100% and 88.7% and 82.3%, the viability, T/C (compound 0.1 µM) was 110% and 93% and 96.3% and the viability, T/C (compound 0.316 µM) was 101% and 96.8% and 86.6%. The viability, T/C (compound 1 µM) was 104% and 106% and 86.8%, the viability, T/C (compound 3.16 µM) was 86% and 109% and 103% and the viability, T/C (compound 10 µM) was 76.3% and 99.6% and 88.1%. For the same compound, the IC50 (curve of compound) was > 10000 nM.
For `CC1COCCN1c1cc(C2(S(C)(=N)=O)CC2)nc(-c2ccnc3[nH]ccc23)n1` (stereo unspecified), the viability, T/C (compound 0.0316 µM) was 97.6% and 101% and 100%, the viability, T/C (compound 0.1 µM) was 110% and 107% and 101% and the viability, T/C (compound 0.316 µM) was 102% and 106% and 112%. The viability, T/C (compound 1 µM) was 38% and 82.3% and 42.9%, the viability, T/C (compound 3.16 µM) was 7.52% and 14% and 6.48% and the viability, T/C (compound 10 µM) was 5.94% and 9.28% and 6.22%. The IC50 (curve of compound) was 805 nM and 1720 nM and 876 nM.
For `COc1cccc(OCCCN)c1-c1cc(Nc2cnc(C#N)cn2)n[nH]1`, the viability, T/C (compound 0.01 µM) was 5.26% and 13.4% and 12.2%, the viability, T/C (compound 0.0316 µM) was 4.75% and 10.6% and 9.65% and the viability, T/C (compound 0.1 µM) was 4.55% and 9.76% and 10.4%. For the same compound, the viability, T/C (compound 0.316 µM) was 4.05% and 9.54% and 9.26%, the viability, T/C (compound 1 µM) was 5.58% and 9.9% and 9.33% and the IC50 (curve of compound) was < 3.16 nM.
`CC1COCCN1c1cc(C2(O)CC3CCC(C2)O3)c2cnn(-c3ccn[nH]3)c2n1` (stereo unspecified) was tested, and the viability, T/C (compound 0.0316 µM) was 62.7% and 62.5% and 102%, the viability, T/C (compound 0.1 µM) was 11% and 9.46% and 22.4% and the viability, T/C (compound 0.316 µM) was 5.2% and 4.15% and 9.01%. The viability, T/C (compound 1 µM) was 4.03% and 3.64% and 7.13%, the viability, T/C (compound 3.16 µM) was 4.12% and 3.11% and 9.4% and the viability, T/C (compound 10 µM) was 4.18% and 3.19% and 7.62%. For the same compound, the IC50 (curve of compound) was 41.9 nM and 41.4 nM and 67.2 nM.

Source: PubChem BioAssay AID1963854 (Molecular Pharmacology Branch, DTP, NCI, 2024)
